Measurements published in patent US20220291203A1, “METHODS OF MEASURING CELL-MEDIATED KILLING BY EFFECTORS” (IMMUNOWAKE INC., priority 2019, published 2022).
Entries after “also recorded” stand apart in the source; their conditions may differ.

Tested on: dual reporter MDA-MB-231 cells (MDA-MB-231 WT)
Assay: T cell killing in 3D tumor-fibroblast spheroids (Example 17)
Type: cell-based, human
Settings: nivolumab 0.5 μg/mL; 3D spheroids, 3E:1T
Description: Dual reporter MDA-MB-231 cell line with PD-L1 knockout (KO) (hereinafter referred to as “dual reporter MDA-MB-231 PD-L1 KO cells” or “MDA-MB-231 KO”) was constructed by co-transducing the Tet-on snLuc-GFP construct as constructed in Example 1 and CRISPR/Cas9 constructs targeting PD-L1. 3D tumor-fibroblast spheroids were generated by co-culturing 10,000 human dermal fibroblasts and 10,000 dual reporter MDA-MB-231 cells (“MDA-MB-231 WT”) or dual reporter MDA-MB-231 PD-L1 KO cells in ultra-low attachment plates for 3 days. After spheroid formation, 30,000 unstimulated primary T cells (3E:1T) were added in the presence of increasing concentrations of trispecific anti-HER2/anti-CD47/anti-CD3 antibody (serially diluted 5-fold, 1000 ng/mL-0.032 ng/mL), and without or with anti-PD-1 antibody nivolumab (0.5 μg/mL).
The trispecific anti-HER2/anti-CD47/anti-CD3 antibody (made in house) has no Fc function due to LALA mutations and cannot mediate ADCC. The cell-killing reaction was incubated for 48 hours. […] Cell culture media was taken one day post-induction with doxycycline (t=72 hr), and luminescence was measured on a GloMax Discover Microplate Reader. Percent cell survival was defined as luminescence readout at various antibody concentrations relative to the average readout with no antibody. […]

nivolumab
effect of nivolumab on trispecific antibody-mediated T cell killing: rescued T cell killing on dual reporter MDA-MB-231 cells; also recorded: could rescue the immunosuppression on cytotoxic T cells
